Laboratory results taken from PubChem BioAssay (NCI).
Values joined by “and” are separate entries in the source; they are usually repeats but may differ in a detail not shown here. Identical values can stand only once.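 The compound was tested at five concentrations on cells cultured in 96-well plates, with a 48-hour exposure period. The concentration for 50% growth inhibition is given as GI50. TGI is the concentration that stops growth completely.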

How the values were obtained:
Experiment in all cases: NCI-60 cell line screen, 48 h
SK-MEL-28 melanoma = tested on: SK-MEL-28 melanoma
UACC-62 melanoma = tested on: UACC-62 melanoma
MOLT-4 leukemia = tested on: MOLT-4 leukemia
HOP-92 NSCLC = tested on: HOP-92 NSCLC
UACC-257 melanoma = tested on: UACC-257 melanoma
RPMI-8226 leukemia = tested on: RPMI-8226 leukemia
EKVX NSCLC = tested on: EKVX NSCLC
NCI-H460 lung = tested on: NCI-H460 lung
SF-539 CNS = tested on: SF-539 CNS
SW-620 colon = tested on: SW-620 colon

SMILES: CC(C)(C)C(=O)[CH-]C(=O)C(C)(C)C.CC(C)(C)C(=O)[CH-]C(=O)C(C)(C)C.CN(C)c1ccc([O-])cc1.CN(C)c1ccc([O-])cc1.[Ti+4]
- GI50 (SK-MEL-28 melanoma): > 100 µM
- TGI (SK-MEL-28 melanoma): > 100 µM
- GI50 (UACC-62 melanoma): > 100 µM
- TGI (UACC-62 melanoma): > 100 µM
- GI50 (MOLT-4 leukemia): > 100 µM
- TGI (MOLT-4 leukemia): > 100 µM
- GI50 (HOP-92 NSCLC): 72 µM
- TGI (HOP-92 NSCLC): > 100 µM
- GI50 (UACC-257 melanoma): > 100 µM
- TGI (UACC-257 melanoma): > 100 µM
- GI50 (RPMI-8226 leukemia): 52.7 µM
- TGI (RPMI-8226 leukemia): > 100 µM
- GI50 (EKVX NSCLC): > 100 µM
- TGI (EKVX NSCLC): > 100 µM
- GI50 (NCI-H460 lung): > 100 µM
- TGI (NCI-H460 lung): > 100 µM
- GI50 (SF-539 CNS): 55.8 µM
- TGI (SF-539 CNS): > 100 µM
- GI50 (SW-620 colon): > 100 µM
- TGI (SW-620 colon): > 100 µM

SMILES: Cc1ccc(NC(=O)c2cc(S(=O)(=O)N3C(=O)NC(=O)NS3(=O)=O)c(S)cc2Cl)cc1
- GI50 (SK-MEL-28 melanoma): 34.4 µM
- TGI (SK-MEL-28 melanoma): > 100 µM
- GI50 (UACC-62 melanoma): 15.7 µM
- TGI (UACC-62 melanoma): 36 µM
- GI50 (MOLT-4 leukemia): 15.3 µM
- TGI (MOLT-4 leukemia): 44 µM
- GI50 (HOP-92 NSCLC): 15.6 µM
- TGI (HOP-92 NSCLC): 54.7 µM
- GI50 (UACC-257 melanoma): 17.2 µM
- TGI (UACC-257 melanoma): 46.8 µM
- GI50 (RPMI-8226 leukemia): 22 µM
- TGI (RPMI-8226 leukemia): 73.6 µM
- GI50 (EKVX NSCLC): 29.5 µM
- TGI (EKVX NSCLC): 96.7 µM
- GI50 (NCI-H460 lung): 29.4 µM
- TGI (NCI-H460 lung): > 100 µM
- GI50 (SF-539 CNS): 27.6 µM
- TGI (SF-539 CNS): 68 µM
- GI50 (SW-620 colon): 31.6 µM
- TGI (SW-620 colon): > 100 µM

SMILES: CCC1=CC2CN(C1)Cc1c([nH]c3ccccc13)[C@@](C(=O)OC)(c1cc3c(cc1OC)N(C)[C@H]1[C@@](O)(C(=O)OC)[C@H](OC(C)=O)[C@]4(CC)C=CCN5CC[C@]31[C@@H]54)C2 (stereo partly drawn)
- GI50 (SK-MEL-28 melanoma): 0.0221 µM
- TGI (SK-MEL-28 melanoma): > 100 µM
- GI50 (UACC-62 melanoma): 0.00589 µM
- TGI (UACC-62 melanoma): 50 µM and > 100 µM
- GI50 (MOLT-4 leukemia): 0.0105 µM
- TGI (MOLT-4 leukemia): 11.1 µM and 13.9 µM
- GI50 (HOP-92 NSCLC): 1.51 µM
- TGI (HOP-92 NSCLC): 97.1 µM
- GI50 (UACC-257 melanoma): 7.54 µM
- TGI (UACC-257 melanoma): 33.3 µM
- GI50 (RPMI-8226 leukemia): 0.00931 µM and 0.0415 µM
- GI50 (EKVX NSCLC): 26.7 µM and 45.8 µM
- TGI (EKVX NSCLC): 50 µM and > 100 µM
- GI50 (NCI-H460 lung): 0.00735 µM
- GI50 (SF-539 CNS): 0.014 µM
- TGI (SF-539 CNS): 8.44 µM
- GI50 (SW-620 colon): < 0.005 µM
- TGI (SW-620 colon): 50 µM and > 100 µM

SMILES: O=C(O)[C@@H](Cc1ccc2ccccc2c1)NC(=O)n1c2ccccc2c2ccccc21
- GI50 (SK-MEL-28 melanoma): 11.4 µM
- TGI (SK-MEL-28 melanoma): 46.8 µM
- GI50 (UACC-62 melanoma): 0.435 µM
- TGI (UACC-62 melanoma): 16.1 µM
- GI50 (MOLT-4 leukemia): 4.12 µM
- TGI (MOLT-4 leukemia): 20.7 µM
- GI50 (HOP-92 NSCLC): 1.33 µM
- TGI (HOP-92 NSCLC): 7.74 µM
- GI50 (UACC-257 melanoma): 11.9 µM
- TGI (UACC-257 melanoma): > 100 µM
- GI50 (RPMI-8226 leukemia): 3.83 µM
- TGI (RPMI-8226 leukemia): 31.7 µM
- GI50 (EKVX NSCLC): 5.56 µM
- TGI (EKVX NSCLC): 62.2 µM
- GI50 (NCI-H460 lung): 3.47 µM
- TGI (NCI-H460 lung): 33.5 µM
- GI50 (SF-539 CNS): 1.99 µM
- TGI (SF-539 CNS): 6.61 µM
- GI50 (SW-620 colon): 4.04 µM
- TGI (SW-620 colon): > 100 µM

SMILES: O=C(N[C@@H](C[Se][Se]C[C@H](NC(=O)c1ccc(Br)cc1F)C(=O)O)C(=O)O)c1ccc(Br)cc1F
- GI50 (SK-MEL-28 melanoma): > 100 µM
- TGI (SK-MEL-28 melanoma): > 100 µM
- GI50 (UACC-62 melanoma): > 100 µM
- TGI (UACC-62 melanoma): > 100 µM
- GI50 (MOLT-4 leukemia): > 100 µM
- TGI (MOLT-4 leukemia): > 100 µM
- GI50 (HOP-92 NSCLC): > 100 µM
- TGI (HOP-92 NSCLC): > 100 µM
- GI50 (UACC-257 melanoma): > 100 µM
- TGI (UACC-257 melanoma): > 100 µM
- GI50 (RPMI-8226 leukemia): > 100 µM
- TGI (RPMI-8226 leukemia): > 100 µM
- GI50 (EKVX NSCLC): > 100 µM
- TGI (EKVX NSCLC): > 100 µM
- GI50 (NCI-H460 lung): > 100 µM
- TGI (NCI-H460 lung): > 100 µM
- GI50 (SF-539 CNS): > 100 µM
- TGI (SF-539 CNS): > 100 µM
- GI50 (SW-620 colon): > 100 µM
- TGI (SW-620 colon): > 100 µM

SMILES: C=C1C(=O)O[C@H]2[C@H]1CC/C(C=Nc1c(N)cc(C(F)(F)F)cc1Br)=C\CC[C@@]1(C)O[C@@H]21
- GI50 (SK-MEL-28 melanoma): 1.88 µM
- TGI (SK-MEL-28 melanoma): 3.66 µM
- GI50 (UACC-62 melanoma): 1.41 µM
- TGI (UACC-62 melanoma): 2.96 µM
- GI50 (MOLT-4 leukemia): 0.624 µM
- TGI (MOLT-4 leukemia): > 100 µM
- GI50 (HOP-92 NSCLC): 1.17 µM
- TGI (HOP-92 NSCLC): 2.75 µM
- GI50 (UACC-257 melanoma): 1.64 µM
- TGI (UACC-257 melanoma): 3.61 µM
- GI50 (RPMI-8226 leukemia): 0.399 µM
- TGI (RPMI-8226 leukemia): 2.37 µM
- GI50 (EKVX NSCLC): 1.84 µM
- TGI (EKVX NSCLC): 5.1 µM
- GI50 (NCI-H460 lung): 1.78 µM
- TGI (NCI-H460 lung): 3.81 µM
- GI50 (SF-539 CNS): 1.51 µM
- TGI (SF-539 CNS): 2.87 µM
- GI50 (SW-620 colon): 1.53 µM
- TGI (SW-620 colon): 3.71 µM

SMILES: COC(=O)C1(O)CC(=O)CCC1c1ccc(OC)cc1 (stereo not drawn)
- TGI (SK-MEL-28 melanoma): > 100 µM
- TGI (UACC-62 melanoma): > 100 µM
- TGI (MOLT-4 leukemia): > 100 µM
- TGI (HOP-92 NSCLC): > 100 µM
- TGI (UACC-257 melanoma): > 100 µM
- TGI (RPMI-8226 leukemia): > 100 µM
- TGI (EKVX NSCLC): > 100 µM
- TGI (NCI-H460 lung): > 100 µM
- TGI (SF-539 CNS): > 100 µM
- TGI (SW-620 colon): > 100 µM

SMILES: COc1cc(NCCCCCCCNC(C)C)c2nccc(C)c2c1
- GI50 (SK-MEL-28 melanoma): 17.7 µM
- TGI (SK-MEL-28 melanoma): 32.1 µM
- GI50 (UACC-62 melanoma): 4.88 µM
- TGI (UACC-62 melanoma): 17.6 µM
- GI50 (MOLT-4 leukemia): 6.95 µM
- TGI (MOLT-4 leukemia): 23 µM
- GI50 (HOP-92 NSCLC): 10.7 µM
- TGI (HOP-92 NSCLC): 23.8 µM
- GI50 (UACC-257 melanoma): 18.2 µM
- TGI (UACC-257 melanoma): 34.2 µM
- GI50 (RPMI-8226 leukemia): 4.79 µM
- TGI (RPMI-8226 leukemia): 20.4 µM
- GI50 (EKVX NSCLC): 10.9 µM
- TGI (EKVX NSCLC): 26.5 µM
- GI50 (NCI-H460 lung): 12.2 µM
- TGI (NCI-H460 lung): 27.5 µM
- GI50 (SF-539 CNS): 13.7 µM
- TGI (SF-539 CNS): 26.8 µM
- GI50 (SW-620 colon): 12.6 µM
- TGI (SW-620 colon): 28.6 µM

SMILES: O=c1oc2ccc(I)cc2c(=O)n1-c1ccc(Cl)cc1F
- GI50 (SK-MEL-28 melanoma): 0.416 µM
- TGI (SK-MEL-28 melanoma): 2.98 µM
- GI50 (UACC-62 melanoma): 0.419 µM
- TGI (UACC-62 melanoma): 2.28 µM
- GI50 (MOLT-4 leukemia): 2.24 µM
- TGI (MOLT-4 leukemia): 6.81 µM
- GI50 (HOP-92 NSCLC): 0.181 µM
- TGI (HOP-92 NSCLC): 0.726 µM
- GI50 (UACC-257 melanoma): 0.526 µM
- TGI (UACC-257 melanoma): 6.45 µM
- GI50 (RPMI-8226 leukemia): 0.758 µM
- TGI (RPMI-8226 leukemia): 6.12 µM
- GI50 (EKVX NSCLC): 1.53 µM
- TGI (EKVX NSCLC): 8.77 µM
- GI50 (NCI-H460 lung): 0.89 µM
- TGI (NCI-H460 lung): 13.1 µM
- GI50 (SF-539 CNS): 0.988 µM
- TGI (SF-539 CNS): 6.71 µM
- GI50 (SW-620 colon): 2.02 µM
- TGI (SW-620 colon): 88.2 µM

SMILES: CC(=O)c1ccc(O)c(CN(C2CCCCC2)C2CCCCC2)c1O
- TGI (SK-MEL-28 melanoma): > 100 µM
- TGI (UACC-62 melanoma): > 100 µM
- TGI (MOLT-4 leukemia): > 100 µM
- TGI (HOP-92 NSCLC): > 100 µM
- TGI (UACC-257 melanoma): > 100 µM
- TGI (RPMI-8226 leukemia): > 100 µM
- TGI (EKVX NSCLC): > 100 µM
- TGI (NCI-H460 lung): > 100 µM
- TGI (SF-539 CNS): > 100 µM
- TGI (SW-620 colon): > 100 µM
